Results: patent US12306191B2, “Composition for diagnosis of degenerative neurological diseases” (KYUNGPOOK NATIONAL UNIVERSITY INDUSTRY—ACADEMIC COOPERATION …, priority 2018, dated 2025)

How the values were obtained:
APP/PS1 mice [1] = assay: Immunofluorescence of microglia (Iba1) and astrocytes (GFAP) in brain cortex of injected APP/PS1 mice; assay type: in vivo, mouse; conditions: 7-month-old APP/PS1 mice, i.p. daily 4 weeks, 5 mg/kg N-acetyl sphingosine, 1 mg/kg FTY720, 3 uM S1P; for microglia compared to APP/PS1 mice: FIG. 9a; for astrocytes compared to APP/PS1 mice: FIG. 9b
Protocol: (§1) After the cerebrum and the hippocampus of a mouse were immobilized, anti-20G10 against amyloid-β (Aβ) 42 (mouse, 1:1000) and anti-G30 against Aβ 40 (rabbit, 1:1000), anti-MAP2 (chicken, 1:2000), anti-Synaptophysin (mouse, 1:100), anti-Synapsin1 (rabbit, 1:500), anti-PSD95 (mouse, 1:100), anti-Iba-1 (rabbit, 1:500), and anti-GFAP (rabbit, 1:500) were incubated together. The sites were analyzed using a confocal laser scanning microscope or an Olympus BX51 microscope equipped with Fluoview SV1000 imaging software (Olympus FV1000, Japan). Percentages of areas of the stained sites to an area of total tissues were quantified using Metamorph software (Molecular Devices).
(§2) In order to measure neuroinflammatory resolution factor, nerve cells from the mouse's cerebrum were incubated and then treated with 10 nM N-acetyl sphingosine 1 phsosphate (Toronto Research chemicals, C262710) and N-acetyl sphingosine (Sigma, 01912) to prepare CM. For COX2 acetylation analysis, nerve cells were incubated from the mouse's cerebrum and treated with 2uCi [^14C] N-acetyl sphingosine (ARC, ARC1024) and then prepared. In addition, for an in vivo experiment, 5 mg/kg N-acetyl sphingosine (Sigma, 01912), 1 mg/kg FTY720, and 3 uM S1P were injected into 7-month-old APP/PS1 mice daily for 4 weeks through intraperitoneal injection.
The present inventors confirmed AD lesions by injecting N-acetyl sphingosine, one of COX2 acetylating agents identified through the above experiment, into an APP/PS1 animal model. First, in order to determine an effect of N-acetyl sphingosine on neuroinflammatory response by secreting the neuroinflammatory resolution factor, changes in microglia and astrocytes were observed. […] However, when sphingosine derivatives FTY720 and S1P were injected, there was no difference in the activity of microglia and astrocytes compared to the Alzheimer's animal model, and there was no effect of reducing Aβ deposition and improving memory (FIGS. 9a and 9b).

APP/PS1 nerve cells = assay: Secretion of neuroinflammatory resolution factor in APP/PS1 nerve cells treated with COX2 acetylating agent; assay type: cell-based, mouse; conditions: 10 nM, FIG. 8b
Protocol: A commercially available ELISA kit (Biosource) was used, and the hemispheres of mice were homogenized and added in a buffer containing 0.02 M of guanidine to prepare a sample for Aβ ELISA. In order to measure neuroinflammatory resolution factor, nerve cells from the mouse cerebrum were incubated to prepare conditioned media (CM). Thereafter, according to the manufacturer's manual, ELISA for Aβ and SPM was performed.
as §2
First, in order to confirm whether the selected compounds promote the secretion of neuroinflammatory resolution factor in nerve cells, APP/PS1 nerve cells were treated with N-acetyl sphingosine 1 phsosphate or N-acetyl sphingosine, and then the expression levels of the neuroinflammatory resolution factor were confirmed. As a result, it was confirmed that the expression levels of LxA4 and RvE1 in nerve cells of APP/PS1 mice were recovered when treated with N-acetyl sphingosine 1 phsosphate or N-acetyl sphingosine (FIG. 8b).

COX2 [2] = assay: COX2 acetylation analysis with [14C] N-acetyl sphingosine; assay type: cell-based, mouse; conditions: 2uCi [14C] N-acetyl sphingosine; FIG. 8c
Protocol: as §2

COX2 [3] = target: T1, COX2 (Homo sapiens, UniProt P35354); assay: LC-MS/MS identification of the acetylation site of COX2; assay type: biochemical; conditions: FIG. 8d
T1 sequence (P35354 18-604): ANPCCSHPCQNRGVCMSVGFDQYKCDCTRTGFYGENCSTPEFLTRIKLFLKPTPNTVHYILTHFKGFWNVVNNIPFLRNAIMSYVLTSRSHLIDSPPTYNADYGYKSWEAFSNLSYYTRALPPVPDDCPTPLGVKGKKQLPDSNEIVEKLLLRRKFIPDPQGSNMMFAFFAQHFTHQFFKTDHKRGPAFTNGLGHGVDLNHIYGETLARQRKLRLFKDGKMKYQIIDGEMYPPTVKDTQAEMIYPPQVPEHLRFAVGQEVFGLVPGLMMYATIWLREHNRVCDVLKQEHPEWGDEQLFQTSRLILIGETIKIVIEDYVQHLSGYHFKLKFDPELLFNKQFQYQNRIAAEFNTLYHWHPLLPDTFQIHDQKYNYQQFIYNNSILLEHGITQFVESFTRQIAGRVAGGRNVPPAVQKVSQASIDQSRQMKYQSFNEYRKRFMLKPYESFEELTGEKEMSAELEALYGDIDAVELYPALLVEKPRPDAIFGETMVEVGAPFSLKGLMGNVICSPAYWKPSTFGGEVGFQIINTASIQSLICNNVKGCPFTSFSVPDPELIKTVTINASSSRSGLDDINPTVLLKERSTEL
Protocol: To confirm an acetylation site of COX2, a COX2 enzyme was precipitated with trichroloacetic acid (Merck) and dried. The dried extract was resuspended in 10 μL of a 5 M urea solution, and a 0.1 M ammonium bicarbonate buffer was incubated at 37° C. with 1 μg trypsin (Promega) for 16 hours. Thereafter, the sample was treated with 1 M DTT (GE Healthcare) at room temperature for 1 hour and then alkylated with 1M iodoacetamide (Sigma) for 1 hour. A protein sample was loaded onto a ZORBAX 300SB-C18 column for sequencing. Peptides were identified with BioTools 3.2 SR5 (Bruker Daltonics).
In addition, it was confirmed that serine 565 (S565) for a peptide 560-[…]-575 of COX2 was acetylated in the presence of N-acetyl sphingosine (FIG. 8d).

APP/PS1 mice [4] = assay: Thioflavin S staining of Aβ plaques in brain of injected APP/PS1 mice; assay type: in vivo, mouse; conditions: 7-month-old APP/PS1 mice, i.p. daily 4 weeks; 5 mg/kg N-acetyl sphingosine, 1 mg/kg FTY720, 3 uM S1P; FIG. 9c
Protocol: as §1
as §2, with “injection. […]” for “injection.”

APP/PS1 mice [5] = assay: Morris Water Maze test of injected APP/PS1 mice; assay type: in vivo, mouse; conditions: 7-month-old APP/PS1 mice, i.p. daily 4 weeks; 5 mg/kg N-acetyl sphingosine, 1 mg/kg FTY720, 3 uM S1P; FIG. 9d
Protocol: In order to confirm potential effects on learning and memory, Morris water maze (MWM) and fear conditioning tests were performed. In the MWM, the mouse learned a task 4 times a day for 10 days, a platform was removed on day 11, and a probe trial was performed. In the fear conditioning, on day 1, the mouse was added in a conditioning chamber, and sound stimulation (10 kHz, 70 dB) and electrical stimulation (0.3 mA, 1 s) were applied. On day 2, the memory on a space was confirmed without stimulation in the same conditioning chamber as day 1, and on day 3, a memory test for fear was performed when only the sound stimulation was applied in another conditioning chamber. An open field test was performed to evaluate motor ability and immediate activity. In the open field test, the mouse was placed in a quadrangular box for 10 minutes and then overall motor ability and time and distances were measured.
as §2, with “In addition, for an in vivo experiment, 5 mg/kg N-acetyl sphingosine (Sigma, 01912), 1 mg/kg FTY720, and 3 uM S1P were injected into 7-month-old APP/PS1 mice daily for 4 weeks through intraperitoneal injection.” left out

COX2 [6] = target: T1, COX2; assay: Western blot of recombinant COX2 protein with ac-S565 antibody after aspirin or N-AS treatment; assay type: biochemical; conditions: FIG. 10
Protocol: (§3) In addition, a Western blot sample was prepared by reacting a recombinant COX2 protein with aspirin and N-acetyl sphingosine (Sigma, 01912, N-AS). In addition, microglia were isolated from the cerebra of wild-type and APP/PS1 9-month-old mice to prepare a Western blot sample, and microglia (Applied Biologics Materials, USA) were incubated with amyloid beta, and then a Western blot sample was prepared. The prepared Western blot sample was subjected to electrophoresis on a polyacrylamide gel to isolate proteins, transferred to a nitrocellulose filter, and then bound with anti-ac-S565 (rabbit, 1:500), anti-COX2 (rabbit, 1:1,000, Abcam), and anti-actin (mouse, 1:1,000, Santa Cruz) antibodies, and then bands were shaped using secondary antibodies, and quantified and analyzed using ImageJ (National Institutes of Health, USA).

SphK1 = SphK1 (Homo sapiens, UniProt Q9NYA1); conditions: read-out: KM of acetyl group binding to SphK1; in the presence of 10 mM sphingosine; FIG. 1a
SphK1, sequence (Q9NYA1 whole entry, species assumed): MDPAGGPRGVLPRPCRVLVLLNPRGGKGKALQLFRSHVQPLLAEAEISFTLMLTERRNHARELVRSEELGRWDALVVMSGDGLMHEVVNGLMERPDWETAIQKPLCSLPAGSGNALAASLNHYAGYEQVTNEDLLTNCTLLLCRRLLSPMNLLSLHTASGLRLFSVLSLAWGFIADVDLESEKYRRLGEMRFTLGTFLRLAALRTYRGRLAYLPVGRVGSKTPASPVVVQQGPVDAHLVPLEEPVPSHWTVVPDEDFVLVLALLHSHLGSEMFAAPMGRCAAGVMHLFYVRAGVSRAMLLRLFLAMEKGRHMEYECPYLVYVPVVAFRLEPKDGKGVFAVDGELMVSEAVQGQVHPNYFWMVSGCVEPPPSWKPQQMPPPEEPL

human-derived microglia [7] = assay: Fluorescence immunostaining of COX2 and ac-S565 in human-derived microglia treated with amyloid beta; assay type: cell-based; conditions: FIGS. 13a, 13b
Protocol: In addition, cerebral tissues of wild-type and APP/PS1 9-month-old mice and human-derived microglia were incubated together with anti-ac-S565 (rabbit, 1:100), anti-COX2 (mouse, 1:500, Thermo Fisher Scientific), and anti-Iba1 (goat, 1:500, Abcam). In the cerebral tissues and the human-derived microglia, percentages of cells stained with anti-ac-S565, anti-COX2 and anti-Iba1 among cells stained with anti-COX2 and anti-Iba1 were quantified and analyzed using MetaMorph (Molecular Devices, USA).
The present inventors created a neuroinflammatory environment by treating human-derived microglia with amyloid beta, and then confirmed the level of S565 acetylation of COX2 through fluorescence immunostaining.

human-derived microglia [8] = assay: Western blotting of COX2 and ac-S565 in human-derived microglia treated with amyloid beta; assay type: cell-based; conditions: FIGS. 14a, 14b
Protocol: as §3
The present inventors created a neuroinflammatory environment by treating human-derived microglia with amyloid beta, and then reconfirmed the level of S565 acetylation of COX2 through Western blotting.

Molecule: CCCCCCCCc1ccc(CCC(N)(CO)CO)cc1 [FTY720]
- microglia compared to APP/PS1 mice (APP/PS1 mice [1]): no difference
- astrocytes compared to APP/PS1 mice (APP/PS1 mice [1]): no difference

Molecule: CCCCCCCCCCCCC/C=C/[C@@H](O)[C@H](CO)NC(C)=O [N-acetyl sphingosine]
- expression level of LxA4 (APP/PS1 nerve cells): recovered
- expression level of RvE1 (APP/PS1 nerve cells): recovered
- COX2 acetylation compared with sample mixed with SphK1, acetyl-CoA and sphingosine (COX2 [2]): more acetylation
- acetylation of serine 565 (S565) of COX2 peptide 560-575 (COX2 [3]): acetylated
- microglia compared to APP/PS1 mice (APP/PS1 mice [1]): remarkable decrease
- astrocytes compared to APP/PS1 mice (APP/PS1 mice [1]): remarkable decrease
- amount of Aβ / Aβ deposition compared to APP/PS1 mice (APP/PS1 mice [4]): significantly lowered
- memory and cognition (APP/PS1 mice [5]): improved
- ac-S565 band of treated COX2 in Western blot (S565 acetylation) (COX2 [6]): strongly shown

Molecule: CC(=O)SCCNC(=O)CCNC(=O)[C@H](O)C(C)(C)COP(=O)(O)OP(=O)(O)OC[C@H]1O[C@@H](n2cnc3c(N)ncnc32)[C@H](O)[C@@H]1OP(=O)(O)O [acetyl-CoA]
- Km (SphK1): 58.2 µM

Molecule: CCCCCCCCCCCCC/C=C/[C@@H](O)[C@H](COP(=O)(O)O)NC(C)=O [N-acetyl sphingosine 1 phsosphate]
- expression level of LxA4 (APP/PS1 nerve cells): recovered
- expression level of RvE1 (APP/PS1 nerve cells): recovered

Molecule: CCCCCCCCCCCCC/C=C/[C@@H](O)[C@@H](N)COP(=O)(O)O [S1P, sphingosine-1-phosphate]
- microglia compared to APP/PS1 mice (APP/PS1 mice [1]): no difference
- astrocytes compared to APP/PS1 mice (APP/PS1 mice [1]): no difference
- amount of Aβ / Aβ deposition compared to APP/PS1 mice (APP/PS1 mice [4]): no effect
- memory and cognition (APP/PS1 mice [5]): no effect

Molecule: amyloid beta: amyloid beta used to treat human-derived microglia to create a neuroinflammatory environment
- S565 acetylation of COX2 in microglia (human-derived microglia [7]): decreased
- expression of COX2 in microglia (human-derived microglia [7]): increased
- S565 acetylation of COX2 in microglia (human-derived microglia [8]): decreased
- expression of COX2 in microglia (human-derived microglia [8]): increased

Molecule: CC(=O)Oc1ccccc1C(=O)O [aspirin]
- ac-S565 band of treated COX2 in Western blot (S565 acetylation) (COX2 [6]): hardly detected
